Key:
[1] = test system: unilateral pulmonary fibrosis model in SD rats; experiment: Prophylactic therapeutic efficacy in unilateral pulmonary fibrosis model in SD rats (bleomycin); assay type: in vivo; parameters: key to Fibrosis score (Ashcraft): Ashcraft semi-quantitative fibrosis score; Evaluation of injury and inflammatory lesions of left lung: Fibrotic lesion edge / Evaluation of injury and inflammatory lesions of left lung: Fibrosis lesion: scale not given here; details: for Evaluation of injury and inflammatory lesions of left lung: Fibrosis lesion / Evaluation of injury and inflammatory lesions of left lung: Fibrotic lesion edge / Fibrosis area (left pulmonary fibrosis) / Fibrosis Score 1-3 (%) / Fibrosis Score 4-8 (%) / Fibrosis score (Ashcraft) / Volume of left lung / Weight of left lung: D15, mean ± sem, n = 8; for Evaluation of injury and inflammatory lesions of left lung: Fibrosis lesion / Evaluation of injury and inflammatory lesions of left lung: Fibrotic lesion edge: HE score; for Fibrosis area (left pulmonary fibrosis): Masson trichrome; for weight of left lung compared with model group: p<0.05
Protocol: 40 male SD rats were randomized into Model group (Group 1, n=8), positive drug group BIBF1120 60 mg/kg/d group (Group 2, n=8), Compound A 5 mg/kg/d group (Group 3, n=8), compound A 10 mg/kg/d group (Group 4, n=8) and Compound A 20 mg/kg/d (Group 5, n=8). On the modeling day, rats were anesthetized and exposed to trachea. Bleomycin was injected into trachea of each group (dosage: 3 mg/kg, volume: 1.0 ml/kg). Oral administration was performed 2 hours after modeling, once a day. On Day 15, all the animals were killed, the left lung was taken, the weight and volume of the left lung were measured, then fixed by formalin, the bronchioles were stained with HE, Masson trichrome. The bronchioles, final bronchiole and small pulmonary artery injury and inflammation invasion were evaluated by semi-quantitative score, and pulmonary fibrosis was evaluated by Ashcraft semi-quantitative score.

[2] = test system: unilateral pulmonary fibrosis model in SD rats; experiment: Therapeutic efficacy in unilateral pulmonary fibrosis model in SD rats (bleomycin, dosing from D8); assay type: in vivo; parameters: Evaluation of injury and inflammatory lesions of left lung: Fibrotic lesion edge / Evaluation of injury and inflammatory lesions of left lung: Fibrosis lesion: scale not given here; details: for Expression of Type I collagen (%) / Expression of α-SMA protein (%): left lung immunohistochemistry; for Expression of Type I collagen (%) / Expression of α-SMA protein (%) / Evaluation of injury and inflammatory lesions of left lung: Fibrosis lesion / Evaluation of injury and inflammatory lesions of left lung: Fibrotic lesion edge / Fibrosis area (left pulmonary) / Fibrosis Score 1-3 (%) / Fibrosis Score 4-8 (%) / Fibrosis score (Ashcraft) / Volume of left lung / Weight of left lung: mean ± sem; for Evaluation of injury and inflammatory lesions of left lung: Fibrosis lesion / Evaluation of injury and inflammatory lesions of left lung: Fibrotic lesion edge: HE score; for Fibrosis area (left pulmonary): Masson trichrome
Protocol: On the modeling day, rats were anesthetized and exposed to trachea. Bleomycin was injected into left trachea of each group (dosage: 3 mg/kg, volume: 1.0 ml/kg). Oral administration was performed on Day 8 after modeling, once a day. On Day 22, according to the KCI animal euthanasia SOP, animals in each group were given an overdose of sodium barbiturate and sacrificed under intraperitoneal anesthesia, the left lung was taken, the weight and volume of the left lung were measured, then fixed by formalin, the bronchioles were stained with HE, Masson trichrome. The bronchioles, final bronchiole and small pulmonary artery injury and inflammation invasion were evaluated by semi-quantitative score, and pulmonary fibrosis was evaluated by Ashcraft semi-quantitative score. Immunohistochemical staining of α-SMA, Type I collagen (Collagen-I) were performed at the same time, a full scan was performed by Hamamatsu NanoZoomer Digital Pathology (S210), the α-SMA positive area was semiquantitatively calculated from the unit area of the whole sheelt in pulmonary fibrosis foci, and the positive staining area of type-I collagent per unit of area was calculated.

[3] = test system: lung fibrosis model in mice induced by bleomycin; experiment: Therapeutic efficacy in lung fibrosis model in mice induced by bleomycin; assay type: in vivo, C57BL/6 mice; details: for Percentage of positive α-SMA (%): lung tissue immunohistochemical staining; for Percentage of positive α-SMA (%) / Inflammatory infiltration area / Total lung tissue area / Percentage of inflammatory area (%): n = 10, Mean ± Sem; for Percentage of inflammatory area (%): #<0.05 vs. BLM model group; for inflammatory infiltration area compared with model group: p<0.05
Protocol: Experimental Methods: 60 male C57BL/6 mice were randomize into 6 groups: Blank control group (Group 1, n=10), model group (Group 2, BLM, n=10), Compound A 10 mpk group (Group 3, n=10), compound A 20 mpk group (Group 4, n=10), Compound A 20 mpk +BIBF1120 50 mpk (Group 5, n=10), and BIBF1120 50 mpk positive reference group (Group 6, n=10). One week after the mice were acclimated to the environment, 10 mice in the blank control group were given 50 μl of normal saline in the trachea, and other 50 mice were given 50 μl BLM (0.66 mg/kg, 2 ml/kg) in the trachea. After BLM infusion, 50 mice in BLM infusion group were randomly assigned to start treatment on the 5th day, once a day, with a treatment cycle of 20 days. The whole process was 25 days. After the experiment, the lung tissues were fixed in 10% neutral formalin, dehydrated by alcohol gradient, embedded with paraffin, stained by hematoxylin-eosin (H&E) and Masson trichrome staining. And the inflammatory area and degree of fibrosis of the lung tissues in mice were evaluated by APERIO ScanScope. Immunohistochemical staining of lung tissue was performed to quantify α-SMA positive fibroblasts in lung tissue and to calculate the percentage (%) of α-SMA staining in the entire lung stroma.

[4] = 5 mg/kg/d oral from modeling day
[5] = 10 mg/kg/d oral from modeling day
[6] = 20 mg/kg/d oral from modeling day
[7] = 5 mpk oral D8 to D22 after modeling
[8] = 15 mpk oral D8 to D22 after modeling
[9] = 30 mpk oral D8 to D22 after modeling

## CC(C)c1cnc(-c2cc(NC(=O)c3ccc(N4C[C@@H](C)N(C)[C@@H](C)C4)cc3C(F)(F)F)ccc2Cl)[nH]1 [Comp A, N-(3-(5-isopropyl-1H-imidazol-2-yl)-4-chlorophenyl)-2-trifluoromethyl-4-((3S,5R)-3,4,5-trimethylpiperazin-1-yl)benzamide]
[1]; [4]
  Evaluation of injury and inflammatory lesions of left lung: Fibrosis lesion: 7.93 ± 0.16
  Evaluation of injury and inflammatory lesions of left lung: Fibrotic lesion edge: 5.93 ± 0.20
  Fibrosis area (left pulmonary fibrosis): 81.64 ± 10.49
  Fibrosis Score 1-3 (%): 62.50 ± 16.69%
  Fibrosis Score 4-8 (%): 37.50 ± 16.69%
  Fibrosis score (Ashcraft): 3.33 ± 0.36
  Volume of left lung: 1.38 ± 0.05 cm^3
  Weight of left lung: 1.37 ± 0.08 g
[1]; [5]
  Evaluation of injury and inflammatory lesions of left lung: Fibrosis lesion: 6.93 ± 0.21
  Evaluation of injury and inflammatory lesions of left lung: Fibrotic lesion edge: 5.45 ± 0.28
  Fibrosis area (left pulmonary fibrosis): 78.84 ± 4.44
  Fibrosis Score 1-3 (%): 68.75 ± 19.59%
  Fibrosis Score 4-8 (%): 31.25 ± 19.59%
  Fibrosis score (Ashcraft): 3.15 ± 0.32
  Volume of left lung: 1.29 ± 0.06 cm^3
  Weight of left lung: 1.13 ± 0.05 g
[1]; [6]
  Evaluation of injury and inflammatory lesions of left lung: Fibrosis lesion: 7.68 ± 0.31
  Evaluation of injury and inflammatory lesions of left lung: Fibrotic lesion edge: 6.00 ± 0.13
  Fibrosis area (left pulmonary fibrosis): 76.37 ± 8.33
  Fibrosis Score 1-3 (%): 71.25 ± 22.95%
  Fibrosis Score 4-8 (%): 28.75 ± 22.95%
  Fibrosis score (Ashcraft): 3.29 ± 0.63
  Volume of left lung: 1.21 ± 0.09 cm^3
  Weight of left lung: 1.13 ± 0.08 g
[1]; 10 mpk, fibrosis foci, p<0.001
  injury of terminal bronchioles and pulmonary arterioles compared with model group and Compound A-5 mpk group: significantly reduced
[1]; 10 mpk
  weight of left lung compared with model group: significantly lower
[1]; 20 mpk
  weight of left lung compared with model group: significantly lower
[1]; BIBF1120 60 mg/kg/d, Compound A 5, 10, 20 mg/kg/d, p<0.01
  degree of pulmonary fibrosis (Ashcraft score) compared with model group: significantly alleviated
[1]; BIBF1120 60 mg/kg/d, compound A 5, 10, 20 mg/kg/d
  average score of fibrosis in the entire fibrosis lesion (ashcraft): about 3 points
[2]; 30 mg/kg/d
  percentage of α-SMA protein compared with model group: significantly decreased
[2]; 30 mg/kg/d and 15 mg/kg/d, no statistical significance
  percentage of Type-I collagen protein: decreased
[2]; 5, 15, 30 mg/kg/d
  dose dependence of α-SMA protein expression: significant dose dependence
[2]; 5 mpk oral D8 to D22, n = 5
  Expression of Type I collagen (%): 18.76 ± 2.54%
  Expression of α-SMA protein (%): 8.06 ± 0.59%
[2]; [7]
  Evaluation of injury and inflammatory lesions of left lung: Fibrosis lesion: 6.75 ± 0.40
  Evaluation of injury and inflammatory lesions of left lung: Fibrotic lesion edge: 4.90 ± 0.15
  Fibrosis area (left pulmonary): 70.61 ± 5.23
  Fibrosis Score 1-3 (%): 88.00 ± 5.83%
  Fibrosis Score 4-8 (%): 12.00 ± 5.83%
  Fibrosis score (Ashcraft): 2.44 ± 0.11
  Volume of left lung: 1.34 ± 0.14 cm^3
  Weight of left lung: 1.60 ± 0.33 g
[2]; 14 consecutive days, BIBF1120 100, Compound A 5, 15, 30, GDC0449 50 mg/kg/d, p<0.001
  damage and inflammatory response of terminal bronchioles within fibrosis lesions and pulmonary small artery compared with model group: significantly reduced
[2]; 15 mpk oral D8 to D22, n = 7
  Expression of Type I collagen (%): 16.48 ± 0.93%
  Expression of α-SMA protein (%): 7.30 ± 0.84%
[2]; [8]
  Evaluation of injury and inflammatory lesions of left lung: Fibrosis lesion: 6.89 ± 0.34
  Evaluation of injury and inflammatory lesions of left lung: Fibrotic lesion edge: 4.82 ± 0.24
  Fibrosis area (left pulmonary): 71.16 ± 2.81
  Fibrosis Score 1-3 (%): 91.43 ± 1.43%
  Fibrosis Score 4-8 (%): 8.57± 1.43%
  Fibrosis score (Ashcraft): 2.44 ± 0.07
  Volume of left lung: 1.41 ± 0.21 cm^3
  Weight of left lung: 1.40 ± 0.21 g
[2]; 30 mpk oral D8 to D22, n = 7
  Expression of Type I collagen (%): 16.77 ± 2.03%
[2]; 30 mpk oral D8 to D22, n = 7, **p<0.01 vs. Model group
  Expression of α-SMA protein (%): 4.96 ± 0.26** %
[2]; [9]
  Evaluation of injury and inflammatory lesions of left lung: Fibrosis lesion: 7.03 ± 0.18
  Evaluation of injury and inflammatory lesions of left lung: Fibrotic lesion edge: 4.95 ± 0.20
  Fibrosis area (left pulmonary): 71.27 ± 3.21
  Fibrosis Score 1-3 (%): 84.29 ± 4.81%
  Fibrosis Score 4-8 (%): 15.71 ± 4.81%
  Fibrosis score (Ashcraft): 2.47 ± 0.16
  Volume of left lung: 1.40 ± 0.09 cm^3
  Weight of left lung: 1.44 ± 0.14 g
[2]; BIBF1120 100, Compound A 5, 15, 30, GDC0449 50 mg/kg/d, p<0.01
  degree of pulmonary fibrosis (Ashcraft score) compared with model group: significantly better
[2]; BIBF1120 100 mpk, Compound A 5 mpk, GDC0449 50 mpk
  amount of Type I collagen deposition in the fibrotic lesions compared with model group: no significant difference
[3]; 10 mpk oral D5 to D25
  Percentage of positive α-SMA (%): 0.78 ± 0.11%
  Inflammatory infiltration area: 8.80 ± 2.79 mm^2
  Total lung tissue area: 100.20 ± 3.61 mm^2
  Percentage of inflammatory area (%): 9.42 ± 3.35^# %
[3]; 10 mpk, p<0.01
  modified pathological Ashcroft score of pulmonary fibrosis injury compared with model group: significantly decreased
[3]; 10 mpk
  inflammatory infiltration area compared with model group: significantly decreased
[3]; 20 mpk oral D5 to D25, ##p < 0.01 vs. Model group
  Percentage of positive α-SMA (%): 0.64 ± 0.12^## %
[3]; 20 mpk oral D5 to D25
  Inflammatory infiltration area: 7.85 ± 2.28 mm^2
  Total lung tissue area: 96.41 ± 3.28 mm^2
  Percentage of inflammatory area (%): 8.23 ± 2.40^# %
[3]; 20 mpk, p<0.01
  immunohistochemical staining of α-SMA compared with model group: significantly decreased
  modified pathological Ashcroft score of pulmonary fibrosis injury compared with model group: significantly decreased
[3]; 20 mpk
  inflammatory infiltration area compared with model group: significantly decreased
